Our source for the IC50 values is US12527779B2, “Prostaglandin E2 (PGE2) EP4 receptor antagonists” (Domain Therapeutics, priority 2019, dated 2026).

Molecules are shown by their SMILES. Structures can show the parent of a compound that is named as a salt. Where only a bound is given, the exact number is not on record here.

Broadly, the IC50 is the midpoint of a concentration-inhibition curve. Lower therefore signals greater potency.

T1 sequence (P35408 whole entry): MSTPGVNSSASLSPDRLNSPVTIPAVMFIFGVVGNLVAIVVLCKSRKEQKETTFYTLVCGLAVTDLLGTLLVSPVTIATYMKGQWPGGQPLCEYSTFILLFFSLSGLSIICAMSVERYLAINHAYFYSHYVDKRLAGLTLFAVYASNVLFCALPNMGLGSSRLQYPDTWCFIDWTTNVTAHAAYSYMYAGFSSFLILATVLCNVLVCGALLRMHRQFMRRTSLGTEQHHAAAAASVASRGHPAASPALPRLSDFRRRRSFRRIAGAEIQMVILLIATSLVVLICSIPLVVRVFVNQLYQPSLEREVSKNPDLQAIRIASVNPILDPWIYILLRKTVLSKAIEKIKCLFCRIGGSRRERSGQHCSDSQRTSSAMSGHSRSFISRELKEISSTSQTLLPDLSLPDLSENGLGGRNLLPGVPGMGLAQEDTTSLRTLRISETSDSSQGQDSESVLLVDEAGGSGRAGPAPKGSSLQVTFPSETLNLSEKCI

This experiment has as its target T1, human EP4 (hEP4) receptor (Homo sapiens, UniProt P35408).
T1 construct: expressed in transfected cells; host or cells: HEK-293 T cells, transient co-transfection with polyethylenimine
The experiment in a line: In vitro human EP4 functional antagonist activity using BRET biosensors (cAMP EPAC biosensor, TCS2510 stimulation). Format: cell-based. As to conditions: antagonist activity vs EC60 TCS2510, hEP4 in HEK-293 T cells. Summed up:
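HEK-293T cells transiently co-transfected with hEP4 and EPAC cAMP BRET biosensor (luciferase/GFP), assayed 48 h later in HEPES-buffered saline after 1 h at 22 °C. After 5 min with compound, cells stimulated with EC60 TCS2510 and BRET read for 10 min; IC50 from 10-point, 4.5-log variable-slope fits, duplicate, two experiments.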
For the compound `COc1cccc(OCCN(C)C2(C(=O)NC3(c4ccc(C(=O)O)cc4)CC3)CCOCC2)c1` [Example 38, 4-[1-[[4-[2-(3-Methoxyphenoxy)ethyl-methyl-amino]tetrahydropyran-4-carbonyl]amino]cyclopropyl]benzoic acid, hydrochloride], the IC50 is below 100 nM. `C[C@H](NC(=O)C(C)(C)N1CC[C@@H](Oc2cccc(C(F)(F)F)c2)C1)c1ccc(S(C)(=N)=O)cc1` (stereo partly drawn) [Example 205, 2-Methyl-N-((1S)-1-(4-(S-methylsulfonimidoyl)phenyl)ethyl)-2-((R)-3-(3-(trifluoromethyl)phenoxy)pyrrolidin-1-yl)propanamide, hydrochloride] returned an IC50 below 100 nM. The same measure for `C[C@H](NC(=O)C1(NCCOc2cccc(C(F)(F)F)c2)CCOCC1)c1ccc(C(=O)O)cc1` [Example 12, 4-[(1S)-1-[[4-[2-[3-(Trifluoromethyl)phenoxy]ethylamino]tetrahydropyran-4-carbonyl]amino]ethyl]benzoic acid]: below 100 nM; for `C[C@H](NC(=O)C1(c2ccc(OCCC3CCCCC3)cc2)CCOCC1)c1ccc(C(=O)O)cc1` [Example 95, 4-[(1S)-1-[[4-[4-(2-Cyclohexylethoxy)phenyl]tetrahydropyran-4-carbonyl]amino]ethyl]benzoic acid]: below 1000 nM; for `C[C@H](NC(=O)C1(N(C)CCOc2ccccc2)CCOC1)c1ccc(C(=O)O)cc1` (stereo partly drawn) [Example 74, 4-[(1S)-1-[[3-[Methyl(2-phenoxyethyl)amino]tetrahydrofuran-3-carbonyl]amino]ethyl]benzoic acid, hydrochloride]: below 100 nM.

`C[C@H](NC(=O)C1(N2CC[C@H](Oc3cccc(Cl)c3)C2)CCOCC1)c1ccc(C(=O)O)cc1` [Example 138, 4-[(1S)-1-[[4-[(3S)-3-(3-Chlorophenoxy)pyrrolidin-1-yl]tetrahydropyran-4-carbonyl]amino]ethyl]benzoic acid, hydrochloride] returned an IC50 below 1000 nM. As to `C[C@H](NC(=O)C(C)(C)N1CC[C@@H](COc2cccc(Cl)c2)C1)c1ccc(C(=O)O)cc1` [Example 209, 4-((S)-1-(2-((R)-3-((3-Chlorophenoxy)methyl)pyrrolidin-1-yl)-2-methylpropanamido)ethyl)benzoic acid], the IC50 is below 100 nM. The result for `C[C@H](NC(=O)C1(N(C)CCOc2cccc(Cl)c2)CCOC1)c1ccc(C(=O)O)cc1` (stereo partly drawn) [Example 75, 4-[(1S)-1-[[3-[2-(3-Chlorophenoxy)ethyl-methyl-amino]tetrahydrofuran-3-carbonyl]amino]ethyl]benzoic acid, hydrochloride] reads below 100 nM; that for `C[C@H](NC(=O)C1(N2CC[C@@H](Oc3cccc(Cl)c3)C2)CCC1)c1ccc(C(=O)O)cc1` [Example 159, 4-[(1S)-1-[[1-[(3R)-3-(3-Chlorophenoxy)pyrrolidin-1-yl]cyclobutane-1-carbonyl]amino]ethyl]benzoic acid, hydrochloride], below 100 nM. `C[C@H](NC(=O)C1(c2ccc(OCC3CCCCC3)cn2)CCOCC1)c1ccc(C(=O)O)cc1` [Example 119, 4-[(1S)-1-[[4-[5-(Cyclohexylmethoxy)-2-pyridyl]tetrahydropyran-4-carbonyl]amino]ethyl]benzoic acid] displayed an IC50 below 1000 nM. The result for `C[C@H](NC(=O)C1(N2CC[C@@H](Oc3cccc(C(F)(F)F)c3)C2)CCOCC1)c1ccccc1Cl` [Example 192, N—((S)-1-(2-Chlorophenyl)ethyl)-4-((R)-3-(3-(trifluoromethyl)phenoxy)pyrrolidin-1-yl)tetrahydro-2H-pyran-4-carboxamide, hydrochloride] reads below 1000 nM; that for `CN(CCOc1ccccc1)C1(C(=O)NC2(c3ccc(C(=O)O)cc3)CC2)CCOC1` (stereo not drawn) [Example 76, 4-[1-[[3-[Methyl(2-phenoxyethyl)amino]tetrahydrofuran-3-carbonyl]amino]cyclopropyl]benzoic acid, hydrochloride], below 1000 nM.
